# According to patent US20230172204A1 (BASF SE, priority 2020, published 2023):
# How the values were obtained:
# [1] = test system: Phakopsora pachyrhizi (F129L); experiment: Protective control of soybean rust on soybeans (PHAKPA P6); assay type: in vivo; details: for % PHAKPA (F129L) Disease level P6 at 4 ppm: protective P6, 4 ppm; for % PHAKPA (F129L) Disease level P6 at 4 ppm / % PHAKPA (F129L) Disease level P6 at 16 ppm: soybean rust F129L; for % PHAKPA (F129L) Disease level P6 at 16 ppm: protective P6, 16 ppm; for PHAKPA (F129L) Disease level (%) P6 at 16 ppm / PHAKPA (F129L) Disease level (%) P6 at 4 ppm: P6 protective, % diseased leaf area
# [2] = test system: Phakopsora pachyrhizi (F129L); experiment: Protective control of soybean rust on soybeans (PHAKPA P2); assay type: in vivo; details: for % PHAKPA (F129L) Disease level P2 at 4 ppm: protective P2, 4 ppm; for % PHAKPA (F129L) Disease level P2 at 4 ppm / % PHAKPA (F129L) Disease level P2 at 16 ppm: soybean rust F129L; for % PHAKPA (F129L) Disease level P2 at 16 ppm: protective P2, 16 ppm
# [3] = P2 protective, % diseased leaf area
Compound,% PHAKPA (F129L) Disease level P6 at 4 ppm [1] [%],% PHAKPA (F129L) Disease level P6 at 16 ppm [1] [%],% PHAKPA (F129L) Disease level P2 at 4 ppm [2] [%],% PHAKPA (F129L) Disease level P2 at 16 ppm [2] [%],PHAKPA (F129L) Disease level (%) P6 at 16 ppm [1] [%],"PHAKPA (F129L) Disease level (%) P2 at 16 ppm ([2]; P2 protective, 16 ppm, % diseased leaf area) [%]","PHAKPA (F129L) Disease level (%) P2 at 4 ppm [2, 3] [%]",PHAKPA (F129L) Disease level (%) P6 at 4 ppm [1] [%]
CO/N=C(/C(=O)OC)c1cccc(C)c1CO/N=C(\C)c1cc(C)cc(C(F)(F)F)c1 [compound 65],100,87,93,77,–,–,–,–
CO/N=C(/C(=O)OC)c1cccc(C)c1CO/N=C(\C)c1c(C)cccc1C [compound 174],80,70,100,100,–,–,–,–
CO/N=C(/C(=O)OC)c1cccc(C)c1CO/N=C(\C)c1ccc(-c2ccccc2)cc1C(F)(F)F [compound 414],53,15,53,9,–,–,–,–
CO/N=C(/C(=O)OC)c1cccc(C)c1CO/N=C(\C)c1c(Cl)cc(Cl)cc1OC(F)(F)F [compound 427],60,47,100,90,–,–,–,–
CNC(=O)/C(=N/OC)c1cccc(C)c1CO/N=C(\C)c1cccc(Cl)c1C(F)(F)F [compound 422],32,2,30,0,–,–,–,–
CNC(=O)/C(=N/OC)c1cccc(C)c1CO/N=C(\COC)c1cccc(C(F)(F)F)c1 [compound 186],2,0,1,0,–,–,–,–
CO/N=C(/C(=O)OC)c1cccc(C)c1CO/N=C(\C)c1cccc(-c2ccccc2)c1 [compound 97],1,0,4,1,–,–,–,–
CO/N=C(/C(=O)OC)c1cccc(C)c1CO/N=C(\C)c1cc(C(F)(F)F)ccc1F [compound 198],0,0,4,1,–,–,–,–
CNC(=O)/C(=N/OC)c1cccc(C)c1CO/N=C(\C)c1cccc(-c2noc(C(F)(F)F)n2)c1 [Ex. 205],–,–,–,–,1,1,–,–
"CO/N=C(/C(=O)OC)c1cccc(C)c1CO/N=C(\OC)c1cccc(C)c1 [drawing 970, reference compound]",–,–,–,–,57,–,83,–
CNC(=O)/C(=N/OC)c1cccc(C)c1CO/N=C(\C)c1ccc(Cl)c(F)c1OC(F)(F)F [compound 449],57,9,33,10,–,–,–,–
CO/N=C(/C(=O)OC)c1cccc(C)c1CO/N=C(\C)c1cc(Cl)ccc1Cl [compound 117],88,12,85,10,–,–,–,–
CNC(=O)/C(=N/OC)c1cccc(C)c1CO/N=C(\C)c1ccc(/C(C)=N/OC)cc1 [compound 182],13,0,6,0,–,–,–,–
CNC(=O)/C(=N/OC)c1cccc(C)c1CO/N=C(\C)c1ccc(Cc2ccccc2)cc1C(F)(F)F [compound 407],17,4,12,6,–,–,–,–
CO/N=C(/C)c1ccc(/C(C)=N/OCc2c(C)cccc2/C(=N\OC)C(=O)OC)c(C(F)(F)F)c1 [compound 417],63,22,35,18,–,–,–,–
CO/N=C(/C(=O)OC)c1cccc(C)c1CO/N=C(\C)c1ccccc1C [compound 115],92,75,83,63,–,–,–,–
CNC(=O)/C(=N/OC)c1cccc(C)c1CO/N=C(\C)c1ccc(OC(F)(F)F)cc1C [compound 261],87,32,70,9,–,–,–,–
CC/C(=N\OCc1ccccc1/C(=N\OC)C(=O)NC)c1cccc(C(F)(F)F)c1 [reference compound],–,–,–,–,–,–,60,70
CO/N=C(/C(=O)OC)c1cccc(C)c1CO/N=C(\C)c1cc(F)cc(C(F)(F)F)c1 [compound 51],15,0,28,2,–,–,–,–
CNC(=O)/C(=N/OC)c1cccc(C)c1CO/N=C(/c1cccc(C(F)(F)F)c1)C(C)C [compound 207],83,5,40,11,–,–,–,–
CO/C=C(/C(=O)OC)c1cccc(C)c1CO/N=C(\C)c1ccc(-c2ccc(F)cc2)cc1C(F)(F)F [compound 432],13,3,12,0,–,–,–,–
CNC(=O)/C(=N/OC)c1cccc(C)c1CO/N=C(\CC(F)(F)F)c1ccccc1C [compound 393],93,42,93,55,–,–,–,–
COC=C(C(=O)OC)c1cccc(C)c1CON=C(C)c1cccc(C(F)(F)F)c1 [Ex. 231],2,0,0,0,–,–,0,2
CO/C=C(/C(=O)OC)c1cccc(C)c1CO/N=C(\C)c1ccc(F)c(F)c1OC(F)(F)F [compound 450],4,1,3,1,–,–,–,–
CO/N=C(/C(=O)OC)c1cccc(C)c1CO/N=C(\C)c1ccc(OC(F)(F)F)cc1 [compound 133],2,0,1,0,–,–,–,–
CO/N=C(/C(=O)OC)c1cccc(C)c1CO/N=C(\C)c1cc(C(F)(F)F)ccc1Cl [compound 200],100,77,93,73,–,–,–,–
